Reference: patent publication US20250090510A1, “eIF4G1-eIF1 INHIBITORS AND USE THEREOF” (YEDA RESEARCH AND DEVELOPMENT CO. LTD., priority 2022, published 2025)

System: leaky scanning from cap-proximal AUG in HEK293T cells
Experiment: Leaky scanning GFP reporter with cap-proximal upstream AUG, western blot
Assay type: cell-based, human
Conditions: upstream AUG with 16 nt 5′UTR
Source text: FIGS. 1A-G: Identification and initial characterization of eIF1-eIF4G1 inhibitors using a high-throughput drug screen (HTS). (1A) A flowchart describing the steps of the recombinant eIF1-eIF4G1 split-RL HTS. (1B) Selection of drugs that inhibit leaky scanning. HEK293T cells were transfected with a short 5′UTR bearing GFP reporter gene described on the top, treated with the indicated HTS hits, and then analyzed by western blot with GFP antibody. US and DS denote upstream and downstream AUG initiation sites, respectively. (1C) A graph showing the change in the ratio of the upstream and downstream AUG following treatment with the indicated drugs. (1D) The chemical structure of the eIF1-eIF4G1 inhibitors, i14G1-10 and i14G1-12. (1E) His-tagged eIF4G1 and His-tagged eIF1 were expressed in BL21 bacteria and purified using nickel NTA beads. Purified His-tagged eIF4G1 and His-tagged eIF1 were incubated with the indicated doses of either i14G1-10 (0-256 μM) or i14G1-12 (0-256 μM) for 5 minutes, followed by fluorescence measurement. For eIF4G1 excitation was at 280 nm and emission was at 350 nm. For eIF1 excitation was at 274 nm and emission was at 304 nm. The data shown represent three independent replicates. IC50 was calculated using Graphpad prism 9. (1F-1G) Western blots of GST pull down. […]
To address the functional significance of the temporal eIF1-eIF4G1 interaction, the inventors set out to develop pharmacological tools against this complex. To this end, the split-Renilla luciferase (RL) complementation assay previously found to be an efficient readout of eIF1 and eIF4G1 interaction in mammalian cells and a highly sensitive and powerful approach for the identification of protein-protein inhibitors was used. […] As knockdown of either eIF1 or eIF4G1 and interference with eIF1-eIF4G1 interaction led to the arrest of leaky scanning from cap-proximal AUG, the selected compounds were analyzed for their effect on initiation from cap-proximal AUG. […]

SMILES | upstream to downstream AUG ratio (leaky scanning)
O=C(/C=C/Sc1ccc(C(F)(F)F)cn1)c1ccccc1 [i14G1-10] | selectively changed the upstream to downstream ratio by inhibiting leaky scanning from the cap-proximal AUG
Cn1ccnc1S/C(=C/C=C(C#N)C#N)c1ccc(Cl)cc1 [i14G1-12] | selectively changed the upstream to downstream ratio by inhibiting leaky scanning from the cap-proximal AUG
